Reference: US10584128B2, “Bicyclic dihydropyrimidine-carboxamide derivatives as Rho-Kinase inhibitors” (CHIESI FARMACEUTICI S.p.A., priority 2016, dated 2020)

Key:
[1] = target: Rho kinase 2 (Homo sapiens, UniProt O75116); test: In vitro Rho kinase inhibitory activity assay (ADP-Glo kit, Myelin Basic Protein substrate); type: biochemical; settings: 10 μM ATP, 25° C., read-out: ROCK2 inhibitory activity (Ki, range of activity)
How it was run: (§1)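 ADP-Glo luminescence read-out. Enzyme (ROCK1 or ROCK2) + compound 30 min, then 10 μM ATP final, 1 h, 25 °C; 2.5 μM MBP peptide substrate, Tris pH7.5/MgCl2/BSA/DTT buffer, 1% DMSO. IC50 from variable-slope fit (0–100% fixed); Ki via Cheng-Prusoff.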

[2] = target: Rho kinase 1 (Homo sapiens, UniProt Q13464); test: as above; type: biochemical; settings: 10 μM ATP, 25° C., read-out: ROCK1 inhibitory activity (Ki, range of activity)
Chain of Rho kinase 1 (Q13464 whole entry): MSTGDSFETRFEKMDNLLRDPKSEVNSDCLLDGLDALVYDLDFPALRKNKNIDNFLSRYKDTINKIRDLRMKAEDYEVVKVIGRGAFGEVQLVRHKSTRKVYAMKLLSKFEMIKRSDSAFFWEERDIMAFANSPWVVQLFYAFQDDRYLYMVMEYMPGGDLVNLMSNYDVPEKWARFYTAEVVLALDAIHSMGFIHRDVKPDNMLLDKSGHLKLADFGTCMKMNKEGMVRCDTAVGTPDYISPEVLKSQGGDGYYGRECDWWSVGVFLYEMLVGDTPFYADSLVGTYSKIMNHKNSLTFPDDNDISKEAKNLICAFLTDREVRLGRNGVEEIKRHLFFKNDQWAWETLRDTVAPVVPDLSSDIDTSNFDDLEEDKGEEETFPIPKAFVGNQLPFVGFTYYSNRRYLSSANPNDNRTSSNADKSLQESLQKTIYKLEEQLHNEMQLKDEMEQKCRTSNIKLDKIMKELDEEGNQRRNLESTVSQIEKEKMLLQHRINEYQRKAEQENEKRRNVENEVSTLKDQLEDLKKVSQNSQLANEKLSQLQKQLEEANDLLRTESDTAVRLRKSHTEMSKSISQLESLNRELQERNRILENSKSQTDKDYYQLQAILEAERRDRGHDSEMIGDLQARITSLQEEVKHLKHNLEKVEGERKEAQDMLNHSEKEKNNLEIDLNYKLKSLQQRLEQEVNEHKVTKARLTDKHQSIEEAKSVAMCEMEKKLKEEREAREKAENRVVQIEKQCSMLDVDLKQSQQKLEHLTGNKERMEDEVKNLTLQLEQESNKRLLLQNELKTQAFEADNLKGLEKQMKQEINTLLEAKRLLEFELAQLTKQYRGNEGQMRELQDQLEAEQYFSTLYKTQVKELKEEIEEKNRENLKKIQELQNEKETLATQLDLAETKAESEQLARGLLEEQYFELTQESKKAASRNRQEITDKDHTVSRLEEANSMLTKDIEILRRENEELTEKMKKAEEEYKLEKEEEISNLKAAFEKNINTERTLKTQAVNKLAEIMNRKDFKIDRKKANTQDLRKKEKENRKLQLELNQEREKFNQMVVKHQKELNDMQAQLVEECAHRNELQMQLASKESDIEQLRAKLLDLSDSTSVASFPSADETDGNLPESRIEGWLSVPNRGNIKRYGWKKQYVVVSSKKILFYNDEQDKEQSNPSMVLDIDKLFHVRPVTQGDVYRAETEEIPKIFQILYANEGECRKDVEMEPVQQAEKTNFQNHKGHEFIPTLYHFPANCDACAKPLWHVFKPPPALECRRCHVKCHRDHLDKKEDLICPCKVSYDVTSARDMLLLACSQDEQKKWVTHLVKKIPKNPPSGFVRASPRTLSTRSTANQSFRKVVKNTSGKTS
How it was run: as §1

Chain of Rho kinase 2 (O75116 whole entry): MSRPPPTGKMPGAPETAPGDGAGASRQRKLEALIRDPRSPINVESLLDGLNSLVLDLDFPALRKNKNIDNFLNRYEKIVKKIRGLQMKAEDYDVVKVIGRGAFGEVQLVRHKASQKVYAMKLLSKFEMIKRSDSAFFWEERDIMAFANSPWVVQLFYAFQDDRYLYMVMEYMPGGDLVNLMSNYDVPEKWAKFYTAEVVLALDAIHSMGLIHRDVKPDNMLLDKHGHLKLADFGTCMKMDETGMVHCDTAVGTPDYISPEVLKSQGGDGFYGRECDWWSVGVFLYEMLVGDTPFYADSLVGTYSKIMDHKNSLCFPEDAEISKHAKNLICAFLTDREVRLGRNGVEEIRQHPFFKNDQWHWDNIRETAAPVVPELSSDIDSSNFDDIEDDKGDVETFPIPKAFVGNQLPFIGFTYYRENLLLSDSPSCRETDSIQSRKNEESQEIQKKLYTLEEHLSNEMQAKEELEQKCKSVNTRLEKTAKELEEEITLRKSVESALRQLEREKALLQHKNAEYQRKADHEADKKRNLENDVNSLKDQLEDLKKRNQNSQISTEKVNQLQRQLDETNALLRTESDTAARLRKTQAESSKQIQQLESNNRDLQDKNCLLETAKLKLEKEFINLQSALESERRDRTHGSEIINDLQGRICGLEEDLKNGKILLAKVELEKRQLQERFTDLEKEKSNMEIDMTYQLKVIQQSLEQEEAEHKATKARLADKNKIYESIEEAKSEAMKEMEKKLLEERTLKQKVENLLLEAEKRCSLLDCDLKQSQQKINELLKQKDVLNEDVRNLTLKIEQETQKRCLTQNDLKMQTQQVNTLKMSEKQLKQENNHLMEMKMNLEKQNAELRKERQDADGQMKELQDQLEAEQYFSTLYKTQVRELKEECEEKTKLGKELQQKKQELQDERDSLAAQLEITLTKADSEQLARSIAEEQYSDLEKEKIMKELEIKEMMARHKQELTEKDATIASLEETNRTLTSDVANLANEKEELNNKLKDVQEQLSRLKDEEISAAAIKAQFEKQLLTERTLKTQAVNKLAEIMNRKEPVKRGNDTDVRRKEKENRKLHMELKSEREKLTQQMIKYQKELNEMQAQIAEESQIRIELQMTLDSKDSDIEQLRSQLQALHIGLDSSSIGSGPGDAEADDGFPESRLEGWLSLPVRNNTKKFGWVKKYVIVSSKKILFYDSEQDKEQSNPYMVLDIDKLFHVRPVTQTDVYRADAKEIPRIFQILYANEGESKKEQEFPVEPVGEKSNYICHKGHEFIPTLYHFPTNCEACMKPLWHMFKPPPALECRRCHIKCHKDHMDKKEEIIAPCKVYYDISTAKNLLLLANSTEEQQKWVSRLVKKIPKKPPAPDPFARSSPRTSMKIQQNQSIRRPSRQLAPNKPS

| Compound | Ki [1] | Ki [2] |
| --- | --- | --- |
| CC1=C(C(=O)Nc2ccc3cnccc3c2)C(c2ccc(C(F)(F)F)c(F)c2)n2nc(C(=O)NC3CC(F)(F)C3)cc2N1 (stereo not shown) [Example 128, N2-(3,3-difluorocyclobutyl)-7-(3-fluoro-4-(trifluoromethyl)phenyl)-N6-(isoquinolin-6-yl)-5-methyl-4,7-dihydropyrazolo[1,5-a]pyrimidine-2,6-dicarboxamide] | < 50 nM | < 50 nM |
| CC1=C(C(=O)Nc2ccc3[nH]ncc3c2)C(c2ccc(F)cc2)n2nc(C#N)cc2N1 (stereo not shown) [Example 31, 2-cyano-7-(4-fluorophenyl)-N-(1H-indazol-5-yl)-5-methyl-4,7-dihydropyrazolo[1,5-a]pyrimidine-6-carboxamide] | < 50 nM | < 50 nM |
| CC1=C(C(=O)Nc2ccc3[nH]ncc3c2)C(c2ccc(C(F)(F)F)cc2)n2nnnc2N1 (single isomer, unassigned) [Example 27B, N-(1H-indazol-5-yl)-5-methyl-7-(4-(trifluoromethyl)phenyl)-4,7-dihydrotetrazolo[1,5-a]pyrimidine-6-carboxamide] | 50 to 500 nM | 50 to 500 nM |
| CC1=C(C(=O)Nc2ccc3cnccc3c2)C(C2Cc3ccccc3C2)n2nc(CO)cc2N1 (single isomer, unassigned) [Example 60A, 7-(2,3-dihydro-1H-inden-2-yl)-2-(hydroxymethyl)-N-(isoquinolin-6-yl)-5-methyl-4,7-dihydropyrazolo[1,5-a]pyrimidine-6-carboxamide] | < 50 nM | < 50 nM |
| CC1=C(C(=O)Nc2ccc3cnccc3c2)C(c2ccc(C(F)(F)F)c(F)c2)n2nc(N3CCN(C)CC3)cc2N1 (stereo not shown) [Example 136, 7-(3-Fluoro-4-(trifluoromethyl)phenyl)-N-(isoquinolin-6-yl)-5-methyl-2-(4-methylpiperazin-1-yl)-4,7-dihydropyrazolo[1,5-a]pyrimidine-6-carboxamide] | < 50 nM | < 50 nM |
| CC1=C(C(=O)Nc2cc3cn[nH]c3cc2F)C(c2ccc(C(F)(F)F)c(F)c2)n2nnnc2N1 (single isomer, unassigned) [Example 40B, N-(6-fluoro-1H-indazol-5-yl)-7-(3-fluoro-4-(trifluoromethyl)phenyl)-5-methyl-4,7-dihydrotetrazolo[1,5-a]pyrimidine-6-carboxamide] | 50 to 500 nM | 50 to 500 nM |
| CC1=C(C(=O)Nc2ccc3[nH]ncc3c2)C(c2ccc(F)cc2)n2ncc(C(=O)NCCN(C)C)c2N1 (stereo not shown) [Example 92, N3-(2-(dimethylamino)ethyl)-7-(4-fluorophenyl)-N6-(1H-indazol-5-yl)-5-methyl-4,7-dihydropyrazolo[1,5-a]pyrimidine-3,6-dicarboxamide] | > 500 nM | > 500 nM |
| CC1=C(C(=O)Nc2ccc3cnccc3c2)C(c2ccc(Br)cc2)n2nc(CO)cc2N1 (single isomer, unassigned) [Example 61B, 7-(4-bromophenyl)-2-(hydroxymethyl)-N-(isoquinolin-6-yl)-5-methyl-4,7-dihydropyrazolo[1,5-a]pyrimidine-6-carboxamide] | 50 to 500 nM | 50 to 500 nM |
| CCOC(=O)c1cc2n(n1)C(c1ccc(O)cc1)C(C(=O)Nc1ccc3cnccc3c1)=C(C)N2 (stereo not shown) [Example 9, ethyl 7-(4-hydroxyphenyl)-6-(isoquinolin-6-ylcarbamoyl)-5-methyl-4,7-dihydropyrazolo[1,5-a]pyrimidine-2-carboxylate] | < 50 nM | < 50 nM |
| CC1=C(C(=O)Nc2ccc3cnccc3c2)C(c2ccc(C)c(F)c2)n2nc(CN(C)C)cc2N1 (single isomer, unassigned) [Example 110B, 2-((dimethylamino)methyl)-7-(3-fluoro-4-methylphenyl)-N-(isoquinolin-6-yl)-5-methyl-4,7-dihydropyrazolo[1,5-a]pyrimidine-6-carboxamide] | < 50 nM | < 50 nM |
| CC1=C(C(=O)Nc2ccc3cnccc3c2)C(c2cccc3c2ccn3C)n2nc(CO)cc2N1 (stereo not shown) [Example 44, 2-(hydroxymethyl)-N-(isoquinolin-6-yl)-5-methyl-7-(1-methyl-1H-indol-4-yl)-4,7-dihydropyrazolo[1,5-a]pyrimidine-6-carboxamide] | 50 to 500 nM | 50 to 500 nM |
| CC1=C(C(=O)Nc2ccc3[nH]ncc3c2)C(c2ccc(C(F)(F)F)cc2F)n2nnnc2N1 (single isomer, unassigned) [Example 26B, 7-(2-fluoro-4-(trifluoromethyl)phenyl)-N-(1H-indazol-5-yl)-5-methyl-4,7-dihydrotetrazolo[1,5-a]pyrimidine-6-carboxamide] | 50 to 500 nM | 50 to 500 nM |
| CC1=C(C(=O)Nc2ccc3cnccc3c2)C(c2ccc(C)c(F)c2)n2nc(CN(C)C)cc2N1 (single isomer, unassigned) [Example 110A, 2-((dimethylamino)methyl)-7-(3-fluoro-4-methylphenyl)-N-(isoquinolin-6-yl)-5-methyl-4,7-dihydropyrazolo[1,5-a]pyrimidine-6-carboxamide] | 50 to 500 nM | 50 to 500 nM |
| CCOC(=O)c1cc2n(n1)C(c1ccc(F)cc1)C(C(=O)Nc1ccc3[nH]ncc3c1)=C(C)N2 (single isomer, unassigned) [Example 4B, ethyl 6-((1H-indazol-5-yl)carbamoyl)-7-(4-fluorophenyl)-5-methyl-4,7-dihydropyrazolo[1,5-a]pyrimidine-2-carboxylate] | < 50 nM | < 50 nM |
| CC1=C(C(=O)Nc2ccc3cnccc3c2)C(c2ccc(C(F)(F)F)c(F)c2)n2nc(NC(=O)CCN3CCCCC3)cc2N1 (single isomer, unassigned) [131A] | < 50 nM | < 50 nM |
| CC1=C(C(=O)Nc2ccc3cnccc3c2)C(c2ccc(C)c(F)c2)n2nc(CO)cc2N1 (stereo not shown) [Example 58, 7-(3-fluoro-4-methylphenyl)-2-(hydroxymethyl)-N-(isoquinolin-6-yl)-5-methyl-4,7-dihydropyrazolo[1,5-a]pyrimidine-6-carboxamide] | < 50 nM | < 50 nM |
| CC1=C(C(=O)Nc2ccc3cnccc3c2)C(c2ccc(C(F)(F)F)c(F)c2)n2nc(CN3CCC(N4CCCC4)CC3)cc2N1 (stereo not shown) [Example 105, 7-(3-fluoro-4-(trifluoromethyl)phenyl)-N-(isoquinolin-6-yl)-5-methyl-2-((4-(pyrrolidin-1-yl)piperidin-1-yl)methyl)-4,7-dihydropyrazolo[1,5-a]pyrimidine-6-carboxamide] | < 50 nM | < 50 nM |
| CC1=C(C(=O)Nc2ccc3cnccc3c2)C(c2ccc(C(F)(F)F)c(F)c2F)n2nc(CN(C)C)cc2N1 (stereo not shown) [Example 122, 7-(2,3-difluoro-4-(trifluoromethyl)phenyl)-2-((dimethylamino)methyl)-N-(isoquinolin-6-yl)-5-methyl-4,7-dihydropyrazolo[1,5-a]pyrimidine-6-carboxamide] | < 50 nM | < 50 nM |
| CC1=C(C(=O)Nc2ccc3cnccc3c2)C(C2COc3ccccc3O2)n2nc(CO)cc2N1 (single isomer, unassigned) [Example 72B, 7-(2,3-dihydrobenzo[b][1,4]dioxin-2-yl)-2-(hydroxymethyl)-N-(isoquinolin-6-yl)-5-methyl-4,7-dihydropyrazolo[1,5-a]pyrimidine-6-carboxamide] | < 50 nM | < 50 nM |
| CCOC(=O)c1cnn2c1NC(C)=C(C(=O)Nc1ccc3[nH]ncc3c1)C2c1ccc(F)cc1 (stereo not shown) [Example 17, ethyl 6-((1H-indazol-5-yl)carbamoyl)-7-(4-fluorophenyl)-5-methyl-4,7-dihydropyrazolo[1,5-a]pyrimidine-3-carboxylate] | > 500 nM | > 500 nM |
| CCOC(=O)c1cc2n(n1)C(C1CCN(C)CC1)C(C(=O)Nc1ccc3[nH]ncc3c1)=C(C)N2 (stereo not shown) [Example 12, ethyl 6-((1H-indazol-5-yl)carbamoyl)-5-methyl-7-(1-methylpiperidin-4-yl)-4,7-dihydropyrazolo[1,5-a]pyrimidine-2-carboxylate] | > 500 nM | > 500 nM |
| CC1=C(C(=O)Nc2ccc3cnccc3c2)C(C2Cc3ccccc3C2)n2nc(CN(C)C)cc2N1 (single isomer, unassigned) [Example 124a, 7-(2,3-dihydro-1H-inden-2-yl)-2-((dimethylamino)methyl)-N-(isoquinolin-6-yl)-5-methyl-4,7-dihydropyrazolo[1,5-a]pyrimidine-6-carboxamide] | > 500 nM | > 500 nM |
| CC1=C(C(=O)Nc2ccc3cnccc3c2)C(c2ccc(C(F)(F)F)c(F)c2F)n2nc(CN(C)C)cc2N1 (single isomer, unassigned) [Example 122a, 7-(2,3-difluoro-4-(trifluoromethyl)phenyl)-2-((dimethylamino)methyl)-N-(isoquinolin-6-yl)-5-methyl-4,7-dihydropyrazolo[1,5-a]pyrimidine-6-carboxamide] | > 500 nM | > 500 nM |
| CC1=C(C(=O)Nc2ccc3cnccc3c2)C(c2ccc(C(F)(F)F)c(F)c2)n2nc(C(=O)NCCN3CCOCC3)cc2N1 (stereo not shown) [Example 82, 7-(3-fluoro-4-(trifluoromethyl)phenyl)-N6-(isoquinolin-6-yl)-5-methyl-N2-(2-morpholinoethyl)-4,7-dihydropyrazolo[1,5-a]pyrimidine-2,6-dicarboxamide] | < 50 nM | < 50 nM |
| CC1=C(C(=O)Nc2ccc3cnccc3c2)C(c2ccc(C(F)(F)F)cc2)n2nc(CO)cc2N1 (single isomer, unassigned) [Example 43B, 2-(hydroxymethyl)-N-(isoquinolin-6-yl)-5-methyl-7-(4-(trifluoromethyl)phenyl)-4,7-dihydropyrazolo[1,5-a]pyrimidine-6-carboxamide] | < 50 nM | < 50 nM |
| CC1=C(C(=O)Nc2ccc3[nH]ncc3c2)C(c2ccc(F)cc2)n2nc(C)cc2N1 (stereo not shown) [Example 28, 7-(4-fluorophenyl)-N-(1H-indazol-5-yl)-2,5-dimethyl-4,7-dihydropyrazolo[1,5-a]pyrimidine-6-carboxamide] | < 50 nM | < 50 nM |
